The subject of data set [1] is Mus musculus. As to the kind of experiment: In vivo inhibition of HIF-PHD2 in ICR mouse assessed as serum erythropoietin level at 100 mg/kg, po administered as single dose measured after 6 hrs by immunoassay (reference value: 146 pg/ml). Format: functional.
The nature of data set [2]: Solubility of the compound in buffer at pH 6.5. Format: physicochemical.
Data set [3] deals with Egl nine homolog 1 (Rattus norvegicus) (UniProt P59722). Nature of the data set: In vivo inhibition of HIF-PHD2 in Sprague-Dawley rat assessed as increase in serum erythropoietin level at 10 mg/kg, po administered as single dose measured after 8 hrs by immunoassay. Format: functional, organism-based.
Egl nine homolog 1 (Rattus norvegicus), sequence (P59722 whole entry): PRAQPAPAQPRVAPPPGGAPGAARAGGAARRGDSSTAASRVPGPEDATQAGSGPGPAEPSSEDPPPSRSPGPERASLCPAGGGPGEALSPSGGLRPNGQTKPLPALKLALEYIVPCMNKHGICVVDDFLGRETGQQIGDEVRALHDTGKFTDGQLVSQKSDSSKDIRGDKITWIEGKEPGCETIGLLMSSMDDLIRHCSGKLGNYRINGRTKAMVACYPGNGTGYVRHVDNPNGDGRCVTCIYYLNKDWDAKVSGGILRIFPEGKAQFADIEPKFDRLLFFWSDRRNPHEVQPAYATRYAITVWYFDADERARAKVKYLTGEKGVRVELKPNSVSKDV
Data set [4] in a line: Cmax in Sprague-Dawley rat at 1 mg/kg, po. Format: ADME, organism-based. Set-up: dose 1 mg/kg, route oral. The following applies: in vivo.
Data set [5] in a line: AUC (0 to infinity) in Sprague-Dawley rat at 1 mg/kg, po. Set-up: dose 1 mg/kg, time infinity, route oral. The following applies: in vivo. Format: ADME, organism-based.
Data set [6] can be described thus: Oral bioavailability in Sprague-Dawley rat at 1 mg/kg. Format: ADME, organism-based. As to conditions: in vivo.
Data set [7] is described as follows: Cmax in Sprague-Dawley rat at 1 mg/kg, iv. Format: ADME, organism-based. Also noted: dose 1 mg/kg, route intravenous. As to conditions: in vivo.
Data set [8] can be described thus: AUC (0 to infinity) in Sprague-Dawley rat at 1 mg/kg, iv. Format: ADME, organism-based. Also noted: dose 1 mg/kg, time infinity, route intravenous. As to conditions: in vivo.
Data set [9] can be described thus: Total clearance in Sprague-Dawley rat at 1 mg/kg, iv. Format: ADME, organism-based. As to conditions: in vivo.
A short description of data set [10]: Volume of distribution at steady state in Sprague-Dawley rat at 1 mg/kg, iv. The following applies: in vivo, read-out: Vdss. Format: ADME, organism-based.
For data set [11], the system named is Rattus norvegicus. As to the kind of experiment: Antianemic activity in kidney excised-induced renal anemia Sprague-Dawley rat model assessed as improvement in blood hemoglobin level at 1 mg/kg, po administered once daily for 4 weeks measured 2 week post initial dose. Format: functional, organism-based.
Data set [12] relates to Rattus norvegicus. Nature of the data set: Antianemic activity in kidney excised-induced renal anemia Sprague-Dawley rat model assessed as improvement in blood hemoglobin level at 2 mg/kg, po administered once daily for 4 weeks measured 1 week post initial dose. Format: functional, organism-based.
The test system of data set [13] is Mus musculus. Nature of the data set: In vivo inhibition of HIF-PHD2 in ICR mouse assessed as serum erythropoietin level at 10 mg/kg, po administered as single dose measured after 6 hrs by immunoassay (reference value: 125 pg/ml). Format: functional.
The subject of data set [14] is Mus musculus. Nature of the data set: In vivo inhibition of HIF-PHD2 in ICR mouse assessed as serum erythropoietin level at 30 mg/kg, po administered as single dose measured after 6 hrs by immunoassay (reference value: 125 pg/ml). Format: functional.
Data set [15] can be described thus: Cmax in Sprague-Dawley rat at 10 mg/kg, po. As to conditions: in vivo. Format: ADME, organism-based. Set-up: dose 10 mg/kg, route oral.
The nature of data set [16]: AUC (0 to infinity) in Sprague-Dawley rat at 10 mg/kg, po. Format: ADME, organism-based. Also noted: dose 10 mg/kg, time infinity, route oral. As to conditions: in vivo.
Data set [17] can be described thus: Oral bioavailability in Sprague-Dawley rat at 10 mg/kg. Format: ADME, organism-based. As to conditions: in vivo.
Data set [18] can be described thus: Cmax in Sprague-Dawley rat at 0.5 mg/kg, iv. Format: ADME, organism-based. Also noted: dose 0.5 mg/kg, route intravenous. The following applies: in vivo.
Data set [19] is described as follows: AUC (0 to infinity) in Sprague-Dawley rat at 0.5 mg/kg, iv. Format: ADME, organism-based. Set-up: dose 0.5 mg/kg, route intravenous, time infinity. As to conditions: in vivo.
Data set [20] can be described thus: Total clearance in Sprague-Dawley rat at 0.5 mg/kg, iv. Format: ADME, organism-based. As to conditions: in vivo.
Data set [21] can be described thus: Volume of distribution at steady state in Sprague-Dawley rat at 0.5 mg/kg, iv. Format: ADME, organism-based. The following applies: in vivo, read-out: Vdss.

Molecules are shown by their SMILES. Converted amounts (≈) assume the structure as drawn. The source made the active and inactive calls. No cut-off for these calls is given here.

With `O=C(O)c1cnn(-c2nc3cn(Cc4ccc(-c5ccccc5)cc4)nc3c(=O)[nH]2)c1`, the Activity in the data set with Mus musculus [1] was 450 pg/mL.
Regarding `C[C@@H](c1cc(Cl)ccc1Cl)n1ncc2nc(-n3cc(C(=O)O)cn3)[nH]c(=O)c21`, in data set [2], the solubility is greater than 1000 µg/mL. Besides, in data set [3], the inhibition entry is “Active”. The values for the highest concentration (Cmax) in data set [4] and in data set [7] were 1840 ng/mL and 12400 ng/mL, respectively. The AUC(0-inf) came out at 23500 ng·h/mL in data set [5] and 30400 ng·h/mL in data set [8]. Moreover, the bioavailability in [6] came out at 77%. For the same compound, the clearance in data set [9] was 0.567 mL/min/kg. For the same compound, the Vd in data set [10] is 0.249 L/kg. Moreover, the outcome in the data set on Rattus norvegicus [11] and with Rattus norvegicus [12] was Active.
On to `O=C(O)c1cnn(-c2nc3cnn(Cc4ccc(-c5ccccc5)cc4)c3c(=O)[nH]2)c1`, for which the Activity in the data set on Mus musculus [13] is 63000 pg/mL; with Mus musculus [14], 89000 pg/mL. This compound returned a solubility in data set [2] of 9.5 µg/mL (≈ 23 µM). The Cmax came to 2710 ng/mL in data set [15] and 4910 ng/mL in data set [18]. In addition, the AUC(0-inf) in data set [16] worked out at 17800 ng·h/mL; in data set [19], 5560 ng·h/mL. The bioavailability in data set [17] is 16%. This compound also showed a clearance in data set [20] of 1.52 mL/min/kg. Further, in data set [21], the Vd is 0.197 L/kg.
As for `O=C(O)c1cnn(-c2nc3cnn(Cc4ccc(-c5ccc(F)cc5)c(F)c4)c3c(=O)[nH]2)c1`, in data set [2], the concentration in solution (solubility) came to 49 µg/mL (≈ 109 µM).
In data set [2], `O=C(O)c1cnn(-c2nc3cnn(Cc4ccc(Cl)c(Cl)c4)c3c(=O)[nH]2)c1` gave a solubility of 88 µg/mL (≈ 217 µM).
Same read-out and setting: in the case of `C[C@@H](c1ccc(Cl)c(Cl)c1)n1ncc2nc(-n3cc(C(=O)O)cn3)[nH]c(=O)c21` it was 75 µg/mL (≈ 179 µM).

Broadly, the solubility is the dissolved amount per volume that the medium holds. Low readings indicate a poorly soluble substance, high ones a readily soluble substance. For orientation: Cmax means the maximum level reached in the sampled fluid or tissue. For orientation: AUC(0-inf) means total exposure, with the tail of the curve extrapolated. A lower AUC(0-inf) goes with low exposure. Usually bioavailability stands for the share of a dose that reaches the circulation, judged against a reference dose that is usually intravenous. The term clearance denotes the rate of elimination divided by the concentration. A higher clearance goes with efficient removal.

For the origin of these results see ChEMBL document CHEMBL4619793, “Pyrazolo[4,3-d]pyrimidine Derivatives as a Novel Hypoxia-Inducible Factor Prolyl Hydroxylase Domain Inhibitor for the Treatment of Anemia” (ACS Med Chem Lett, 2020).
